Data taken from patent US20260184710A1, “CASITAS B-LINEAGE LYMPHOMA PROTOONCOGENE B (CBL-B) DEGRADING COMPOUNDS AND ASSOCIATED METHODS OF USE” (Arvinas Operations, Inc., priority 2022, published 2026).

Target: T1, Cbl-b (Homo sapiens, UniProt Q13191)
T1 construct: Cbl-b-HiBit KI Jurkat Cells were purchased from Promega; host or cells: Cbl-b-HiBiT knock-in Jurkat cells
Experiment: Cbl-b Degradation Method B (Nano-Glo HiBiT lytic detection)
Assay type: cell-based
Conditions: Cbl-b-HiBit KI Jurkat Cells, incubated at least 6-24 hours; for DC50: half maximal degradation, read-out: Cbl-b Degredation Method B IC50; for Dmax: maximum degradation observed, read-out: Cbl-b Degredation Method B Dmax (%)
Protocol: Cbl-b Degradation Method B [table] Cbl-b-HiBit KI Jurkat Cells were purchased from Promega, and cell media consisted of RPMI 1640 with 10% […] and 1% pen/strep. The cells were counted, measured for viability, and 35 μL of the cell solution was seeded into 384 well flat bottom plates at a ratio of 20,000 cells per 35 μL. After which, the plates were incubated for ˜24 hours at 37° C. and 5% CO2. Compounds were ordered from Evotec in a 384 well plate at a 1 mM top concentration in DMSO and serially diluted 1:3 in DMSO for an 11-point dose response. Using the Bravo instrument, 1 uL of compound solution or DMSO was transferred to 125 uL of media. Each well was treated with 5 μL of compound plus media mixture or DMO and subsequently incubated for at least 6-24 hours at 37° C. and 5% CO2. After incubation, 30 μL of either NanoGlo media was added to each cell, and the plates read on the Synergy Neo2 machine. The concentration of an exemplary compound that leads to half maximal degradation (DC50) as well as the maximum degradation observed (Dmax, conventionally expressed as a percentage of control) is shown below in Table 2.

T1 sequence (Q13191 whole entry): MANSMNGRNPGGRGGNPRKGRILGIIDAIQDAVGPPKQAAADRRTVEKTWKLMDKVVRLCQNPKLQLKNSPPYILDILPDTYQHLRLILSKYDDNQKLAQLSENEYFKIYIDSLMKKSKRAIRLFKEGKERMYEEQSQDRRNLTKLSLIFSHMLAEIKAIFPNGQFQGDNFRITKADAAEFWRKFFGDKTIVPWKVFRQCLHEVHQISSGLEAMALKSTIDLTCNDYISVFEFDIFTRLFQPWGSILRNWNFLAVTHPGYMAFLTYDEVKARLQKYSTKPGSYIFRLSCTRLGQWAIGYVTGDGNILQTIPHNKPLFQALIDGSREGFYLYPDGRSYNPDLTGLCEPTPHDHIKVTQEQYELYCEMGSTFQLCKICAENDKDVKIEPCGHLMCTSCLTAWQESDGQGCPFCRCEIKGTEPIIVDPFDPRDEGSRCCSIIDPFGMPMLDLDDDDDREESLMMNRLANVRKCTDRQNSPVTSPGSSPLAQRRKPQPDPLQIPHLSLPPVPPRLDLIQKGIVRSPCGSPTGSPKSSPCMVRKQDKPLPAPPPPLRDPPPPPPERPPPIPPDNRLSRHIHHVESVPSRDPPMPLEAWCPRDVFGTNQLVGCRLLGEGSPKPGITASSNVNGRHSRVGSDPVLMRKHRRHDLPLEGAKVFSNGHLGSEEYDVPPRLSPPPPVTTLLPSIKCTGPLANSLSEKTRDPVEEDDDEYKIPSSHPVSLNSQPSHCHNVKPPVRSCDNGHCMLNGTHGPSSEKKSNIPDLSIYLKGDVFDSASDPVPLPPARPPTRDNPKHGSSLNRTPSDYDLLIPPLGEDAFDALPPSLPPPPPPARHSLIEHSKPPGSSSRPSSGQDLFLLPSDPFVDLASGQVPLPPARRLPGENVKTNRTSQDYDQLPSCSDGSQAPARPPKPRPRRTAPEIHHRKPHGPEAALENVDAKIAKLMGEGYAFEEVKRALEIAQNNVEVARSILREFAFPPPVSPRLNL

Structure (SMILES) | DC50 | Dmax
Cn1cnnc1C[C@]1(c2cccc(N3Cc4c(cc(CN5CCN(C[C@H]6CC[C@H](OC7CCN(c8ccc9c(c8F)CN(C8CCC(=O)NC8=O)C9=O)CC7)CC6)CC5)cc4C(F)(F)F)C3=O)c2)C[C@@H](C#N)C1 (stereo partly drawn) [Example 14, (1s, 3s)-3-[(4-methyl-4H-1,2,4-triazol-3-yl)methyl]-3-(3-{1-oxo-6-[(4-{[(1r, 4r)-4-({1-[2-(2,6-dioxopiperidin-3-yl)-4-fluoro-1-oxo-2,3-dihydro-1H-isoindol-5-yl]piperidin-4-yl}oxy)cyclohexyl]methyl}piperazin-1-yl)methyl]-4-(trifluoromethyl)-2,3-dihydro-1H-isoindol-2-yl}phenyl)cyclobutane-1-carbonitrile] | < 5 nM | 35 to 70%
Cn1cnnc1CC1(c2cccc(N3Cc4c(cc(CN5CCN(C[C@H]6CC[C@H](OC7CCN(c8ccc9c(c8Cl)CN(C8CCC(=O)NC8=O)C9=O)CC7)CC6)CC5)cc4C(F)(F)F)C3=O)c2)COC1 (stereo partly drawn) [Example 24, 3-[4-chloro-1-oxo-5-(4-{[(1r,4r)-4-[(4-{[2-(3-{3-[(4-methyl-4H-1,2,4-triazol-3-yl)methyl]oxetan-3-yl}phenyl)-3-oxo-7-(trifluoromethyl)-2,3-dihydro-1H-isoindol-5-yl]methyl}piperazin-1-yl)methyl]cyclohexyl]oxy}piperidin-1-yl)-2,3-dihydro-1H-isoindol-2-yl]piperidine-2,6-dione] | < 5 nM | > 70%
Cn1cnnc1CC1(c2cccc(N3Cc4c(cc(CN5CCC(C6CCN(c7ccc8c(c7)C(=O)N(C7CCC(=O)NC7=O)C8=O)CC6)CC5)cc4C(F)(F)F)C3=O)c2)COC1 (stereo not drawn) [Example 26, 2-(2,6-dioxopiperidin-3-yl)-5-(1′-{[2-(3-{3-[(4-methyl-4H-1,2,4-triazol-3-yl)methyl]oxetan-3-yl}phenyl)-3-oxo-7-(trifluoromethyl)-2,3-dihydro-1H-isoindol-5-yl]methyl}-[4,4′-bipiperidin]-1-yl)-2,3-dihydro-1H-isoindole-1,3-dione] | > 500 nM | –
Cn1cnnc1CC1(c2cccc(N3Cc4c(cc(CN5CCC6(CC5)CCN(c5ccc7c(c5)C(=O)N(C5CCC(=O)NC5=O)C7=O)CC6)cc4C(F)(F)F)C3=O)c2)COC1 (stereo not drawn) [Example 27, 2-(2,6-dioxopiperidin-3-yl)-5-(9-{[2-(3-{3-[(4-methyl-4H-1,2,4-triazol-3-yl)methyl]oxetan-3-yl}phenyl)-3-oxo-7-(trifluoromethyl)-2,3-dihydro-1H-isoindol-5-yl]methyl}-3,9-diazaspiro[5.5]undecan-3-yl)-2,3-dihydro-1H-isoindole-1,3-dione] | > 500 nM | –
Cn1cnnc1CC1(c2cccc(N3Cc4c(cc(CN5CCN(c6ccc7c(c6)C(=O)N(C6CCC(=O)NC6=O)C7=O)CC5)cc4C(F)(F)F)C3=O)c2)COC1 (stereo not drawn) [Example 32, 2-(2,6-dioxopiperidin-3-yl)-5-(4-{[2-(3-{3-[(4-methyl-4H-1,2,4-triazol-3-yl)methyl]oxetan-3-yl}phenyl)-3-oxo-7-(trifluoromethyl)-2,3-dihydro-1H-isoindol-5-yl]methyl}piperazin-1-yl)-2,3-dihydro-1H-isoindole-1,3-dione] | 50 to 500 nM | > 70%
Cn1cnnc1CC1(c2cccc(N3Cc4c(cc(CNC5CC(Oc6ccc7c(c6)C(=O)N(C6CCC(=O)NC6=O)C7=O)C5)cc4C(F)(F)F)C3=O)c2)COC1 (stereo not drawn) [Example 37, 2-(2,6-dioxopiperidin-3-yl)-5-[3-({[2-(3-{3-[(4-methyl-4H-1,2,4-triazol-3-yl)methyl]oxetan-3-yl}phenyl)-3-oxo-7-(trifluoromethyl)-2,3-dihydro-1H-isoindol-5-yl]methyl}amino)cyclobutoxy]-2,3-dihydro-1H-isoindole-1,3-dione] | > 500 nM | –

Further lines, results first:

DC50 | Dmax | Structure (SMILES)
> 500 nM | – | Cn1cnnc1CC1(c2cccc(N3Cc4c(cc(CN5CCC(c6ccc7c(c6)C(=O)N(C6CCC(=O)NC6=O)C7=O)CC5)cc4C(F)(F)F)C3=O)c2)COC1 (stereo not drawn) [Example 33, 2-(2,6-dioxopiperidin-3-yl)-5-(1-{[2-(3-{3-[(4-methyl-4H-1,2,4-triazol-3-yl)methyl]oxetan-3-yl}phenyl)-3-oxo-7-(trifluoromethyl)-2,3-dihydro-1H-isoindol-5-yl]methyl}piperidin-4-yl)-2,3-dihydro-1H-isoindole-1,3-dione]
> 500 nM | – | Cn1cnnc1CC1(c2cccc(N3Cc4c(cc(CN5CCC(c6ccc7c(c6)CN(C6CCC(=O)NC6=O)C7=O)CC5)cc4C(F)(F)F)C3=O)c2)COC1 (stereo not drawn) [Example 34, 3-[5-(1-{[2-(3-{3-[(4-methyl-4H-1,2,4-triazol-3-yl)methyl]oxetan-3-yl}phenyl)-3-oxo-7-(trifluoromethyl)-2,3-dihydro-1H-isoindol-5-yl]methyl}piperidin-4-yl)-1-oxo-2,3-dihydro-1H-isoindol-2-yl]piperidine-2,6-dione]
> 500 nM | – | Cn1cnnc1CC1(c2cccc(N3Cc4c(cc(CN5CCN(c6ccc(C(=O)NC7CCC(=O)NC7=O)c(F)c6)CC5)cc4C(F)(F)F)C3=O)c2)COC1 (stereo not drawn) [Example 35, N-(2,6-dioxopiperidin-3-yl)-2-fluoro-4-(4-{[2-(3-{3-[(4-methyl-4H-1,2,4-triazol-3-yl)methyl]oxetan-3-yl}phenyl)-3-oxo-7-(trifluoromethyl)-2,3-dihydro-1H-isoindol-5-yl]methyl}piperazin-1-yl)benzamide]
> 500 nM | – | Cn1cnnc1CC1(c2cccc(N3Cc4c(cc(CN5CCC(c6ccc7c(c6)C(=O)N(C6CCC(=O)NC6=O)C7)CC5)cc4C(F)(F)F)C3=O)c2)COC1 (stereo not drawn) [Example 36, 3-[6-(1-{[2-(3-{3-[(4-methyl-4H-1,2,4-triazol-3-yl)methyl]oxetan-3-yl}phenyl)-3-oxo-7-(trifluoromethyl)-2,3-dihydro-1H-isoindol-5-yl]methyl}piperidin-4-yl)-1-oxo-2,3-dihydro-1H-isoindol-2-yl]piperidine-2,6-dione]
> 500 nM | – | Cn1cnnc1CC1(c2cccc(N3Cc4c(cc(CNC5CCN(c6ccc7c(c6)C(=O)N(C6CCC(=O)NC6=O)C7=O)CC5)cc4C(F)(F)F)C3=O)c2)COC1 (stereo not drawn) [Example 38, 2-(2,6-dioxopiperidin-3-yl)-5-[4-({[2-(3-{3-[(4-methyl-4H-1,2,4-triazol-3-yl)methyl]oxetan-3-yl}phenyl)-3-oxo-7-(trifluoromethyl)-2,3-dihydro-1H-isoindol-5-yl]methyl}amino)piperidin-1-yl]-2,3-dihydro-1H-isoindole-1,3-dione]
> 500 nM | – | Cn1cnnc1CC1(c2cccc(N3Cc4c(cc(CN5CCC(CCN6CCN(c7ccc8c(c7)C(=O)N(C7CCC(=O)NC7=O)C8=O)CC6)CC5)cc4C(F)(F)F)C3=O)c2)COC1 (stereo not drawn) [Example 39, 2-(2,6-dioxopiperidin-3-yl)-5-{4-[2-(1-{[2-(3-{3-[(4-methyl-4H-1,2,4-triazol-3-yl)methyl]oxetan-3-yl}phenyl)-3-oxo-7-(trifluoromethyl)-2,3-dihydro-1H-isoindol-5-yl]methyl}piperidin-4-yl)ethyl]piperazin-1-yl}-2,3-dihydro-1H-isoindole-1,3-dione]
> 500 nM | – | Cn1cnnc1CC1(c2cccc(N3Cc4c(cc(CN5CCC(COCC6CCN(c7ccc8c(c7)C(=O)N(C7CCC(=O)NC7=O)C8=O)CC6)CC5)cc4C(F)(F)F)C3=O)c2)COC1 (stereo not drawn) [Example 40, 2-(2,6-dioxopiperidin-3-yl)-5-(4-{[(1-{[2-(3-{3-[(4-methyl-4H-1,2,4-triazol-3-yl)methyl]oxetan-3-yl}phenyl)-3-oxo-7-(trifluoromethyl)-2,3-dihydro-1H-isoindol-5-yl]methyl}piperidin-4-yl)methoxy]methyl}piperidin-1-yl)-2,3-dihydro-1H-isoindole-1,3-dione]
5 to 50 nM | > 70% | Cn1cnnc1CC1(c2cccc(N3Cc4c(cc(CN5CCN(c6ccc7c(c6)CN(C6CCC(=O)NC6=O)C7=O)CC5)cc4C(F)(F)F)C3=O)c2)COC1 (stereo not drawn) [Example 41, 3-[5-(4-{[2-(3-{3-[(4-methyl-4H-1,2,4-triazol-3-yl)methyl]oxetan-3-yl}phenyl)-3-oxo-7-(trifluoromethyl)-2,3-dihydro-1H-isoindol-5-yl]methyl}piperazin-1-yl)-1-oxo-2,3-dihydro-1H-isoindol-2-yl]piperidine-2,6-dione]
> 500 nM | – | Cn1cnnc1CC1(c2cccc(N3Cc4c(cc(CN5CCC6(CC5)CN(c5cccc7c5CN(C5CCC(=O)NC5=O)C7=O)C6)cc4C(F)(F)F)C3=O)c2)COC1 (stereo not drawn) [Example 42, 3-[4-(7-{[2-(3-{3-[(4-methyl-4H-1,2,4-triazol-3-yl)methyl]oxetan-3-yl}phenyl)-3-oxo-7-(trifluoromethyl)-2,3-dihydro-1H-isoindol-5-yl]methyl}-2,7-diazaspiro[3.5]nonan-2-yl)-1-oxo-2,3-dihydro-1H-isoindol-2-yl]piperidine-2,6-dione]
5 to 50 nM | < 35% | Cn1cnnc1CC1(c2cccc(N3Cc4c(cc(CN[C@H]5CC[C@H](N6CCN(c7ccc8c(c7)C(=O)N(C7CCC(=O)NC7=O)C8=O)CC6)CC5)cc4C(F)(F)F)C3=O)c2)COC1 (stereo partly drawn) [Example 43, 2-(2,6-dioxopiperidin-3-yl)-5-{4-[(1r,4r)-4-({[2-(3-{3-[(4-methyl-4H-1,2,4-triazol-3-yl)methyl]oxetan-3-yl}phenyl)-3-oxo-7-(trifluoromethyl)-2,3-dihydro-1H-isoindol-5-yl]methyl}amino)cyclohexyl]piperazin-1-yl}-2,3-dihydro-1H-isoindole-1,3-dione]
